The test system of this experiment is IFNγ-induced NO production in RAW264.7 mouse macrophages. Kind of experiment: Suppression of IFNγ-induced nitric oxide production (Griess reagent). The format is cell-based. The settings on record: 2 h pre-treatment (0-200 nM), then IFNγ 24 h, normalized to cell viability. An excerpt:
Nitric Oxide Production and Cell Viability.
Background: Nitrite, measured by Griess reagent, commonly stands in for NO production.

The mark [1] stands for this setting: Mus musculus, RAW264.7, RAW264.7 cells.

Some results are limits rather than exact numbers.

One may read the IC50 as the point on the concentration scale where inhibition reaches its midpoint. For `Cn1ncc2c1[C@@]1(C)C=C(C#N)C(=O)C(C)(C)[C@@H]1CC2` [TX63342], under setting [1], the IC50 was found to be 180 nM.

For the compound `CC1(C)C(=O)C(C#N)=C[C@]2(C)[C@@H](O)CCC[C@@H]12` [TX63363], the IC50 under setting [1] was greater than 200 nM. Same read-out and setting: next, `COCO[C@H]1CCC[C@H]2C(C)(C)C(=O)C(C#N)=C[C@]12C` [TX63364]: greater than 200 nM. As for `Cn1cc2c(n1)[C@@]1(C)C=C(C#N)C(=O)C(C)(C)[C@@H]1CC2` [TX63432], the IC50 (RAW264.7 cells) came out at 166 nM. Take `Cn1cc2c(n1)[C@@]1(C)C=C(C#N)C(=O)C(C)(C)[C@H]1C2` [TX63436]: under setting [1], the IC50 was greater than 200 nM. As for `CC1(C)C(=O)C(C#N)=C[C@]2(C)c3nn(C4CCCCC4)cc3CC[C@@H]12` [TX63444], the IC50 under setting [1] came to 140 nM. On the same count and under the same terms, next, `Cn1nc2c(c1Br)CC[C@H]1C(C)(C)C(=O)C(C#N)=C[C@]21C` [TX63445]: 37.9 nM; `CC1(C)C(=O)C(C#N)=C[C@]2(C)c3nn(C(C)(C)C)cc3CC[C@@H]12` [TX63450]: 148 nM; `CC1(C)C(=O)C(C#N)=C[C@]2(C)C(=O)c3cnn(C(C)(C)C)c3C[C@@H]12` [TX63451]: 137 nM.

On to `CC1(C)C(=O)C(C#N)=C[C@]2(C)c3nn(CC(F)(F)F)cc3CC[C@@H]12` [TX63454], for which the IC50 under setting [1] came to 134 nM. Still for that read-out and setting: next, `CC1(C)C(=O)C(C#N)=C[C@]2(C)c3nn(-c4ccccc4)cc3CC[C@@H]12` [TX63455]: 109 nM. Consider `CC1(C)C(=O)C(C#N)=C[C@]2(C)C(=O)c3cnn(-c4ccccc4)c3C[C@@H]12` [TX63456], for which the IC50 under setting [1] is greater than 200 nM. Consider `COC(=O)n1cc2c(n1)[C@@]1(C)C=C(C#N)C(=O)C(C)(C)[C@@H]1CC2` [TX63462], for which the IC50 under setting [1] turned out to be 147 nM. Still for that read-out and setting: next, `CC(=O)n1cc2c(n1)[C@@]1(C)C=C(C#N)C(=O)C(C)(C)[C@@H]1CC2` [TX63463]: no less than 205 nM; `CC1(C)C(=O)C(C#N)=C[C@]2(C)c3nn(CCO)cc3CC[C@@H]12` [TX63464]: greater than 200 nM. In the case of `CC1(C)C(=O)C(C#N)=C[C@]2(C)c3nn(-c4[nH]nc5c4CC[C@H]4C(C)(C)C(=O)C(C#N)=C[C@]54C)cc3CC[C@H]12` [TX63466], the IC50 under setting [1] worked out at 10.4 nM. With `CC1(C)C(=O)C(C#N)=C[C@]2(C)c3[nH]ncc3CC[C@@H]12` [TX63467], the IC50 under setting [1] was greater than 200 nM. On the same count and under the same terms, next, `Cn1nc2c(c1-c1cccc(Cl)c1)CC[C@H]1C(C)(C)C(=O)C(C#N)=C[C@]21C` [TX63485]: 34 nM. The same measure, in the same setting: next, `Cn1nc2c(c1-c1ccc(Cl)cc1)CC[C@H]1C(C)(C)C(=O)C(C#N)=C[C@]21C` [TX63486]: 48 nM. Still for that read-out and setting: next, `Cn1cc2c(n1)[C@@]1(C)C=C(C#N)C(=O)C3(CCCC3)[C@@H]1CC2` [TX63487]: 85 nM; `Cn1nc2c(c1-c1ccccc1Cl)CC[C@H]1C(C)(C)C(=O)C(C#N)=C[C@]21C` [TX63491]: 35 nM.

For the compound `Cn1nc2c(c1-c1ccccc1)CC[C@H]1C3(CCCC3)C(=O)C(C#N)=C[C@]21C` [TX63504], the IC50 under setting [1] worked out at 20 nM.

`Cn1nc2c(c1-c1ccc(F)cc1)CC[C@H]1C(C)(C)C(=O)C(C#N)=C[C@]21C` [TX63507]: under setting [1], the IC50 worked out at 39 nM.

`Cc1ccccc1-c1c2c(nn1C)[C@@]1(C)C=C(C#N)C(=O)C(C)(C)[C@@H]1CC2` [TX63508]: the IC50 under setting [1] worked out at 33 nM. Still for that read-out and setting: next, `COc1ccccc1-c1c2c(nn1C)[C@@]1(C)C=C(C#N)C(=O)C(C)(C)[C@@H]1CC2` [TX63509]: 38 nM; `Cc1ccc(-c2c3c(nn2C)[C@@]2(C)C=C(C#N)C(=O)C(C)(C)[C@@H]2CC3)cc1` [TX63514]: 37 nM; `COc1ccc(-c2c3c(nn2C)[C@@]2(C)C=C(C#N)C(=O)C(C)(C)[C@@H]2CC3)cc1` [TX63515]: 35 nM. Still for that read-out and setting: next, `CC1(C)C(=O)C(C#N)=C[C@]2(C)c3c(cnn3-c3ccccc3)CC[C@@H]12` [TX63524]: 68 nM; `COc1ncc2c(n1)[C@@]1(C)C=C(C#N)C(=O)C(C)(C)[C@@H]1CC2` [TX63528]: 85 nM. As for `Cc1nc(-c2ccccc2)c2c(n1)[C@@]1(C)C=C(C#N)C(=O)C(C)(C)[C@@H]1CC2` [TX63529], the IC50 under setting [1] is 46 nM. Turning to `C[C@@H]1C(=O)C(C#N)=C[C@]2(C)c3nn(C)cc3C[C@@H]12` [TX63533], the IC50 under setting [1] was greater than 200 nM. The same measure, in the same setting: next, `CC(C)c1ncc2c(n1)[C@@]1(C)C=C(C#N)C(=O)C(C)(C)[C@@H]1CC2` [TX63534]: 49 nM; `CC1(C)C(=O)C(C#N)=C[C@]2(C)c3ncncc3CC[C@@H]12` [TX63542]: 55 nM. As for `CC1(C)C(=O)C(C#N)=C[C@]2(C)c3nn(-c4ccccc4)c(-c4ccccc4)c3CC[C@@H]12` [TX63544], the IC50 under setting [1] worked out at 39 nM. In the case of `C[C@@H]1C(=O)C(C#N)=C[C@]2(C)c3nn(C)cc3CC[C@@H]12` [TX63551], the IC50 under setting [1] amounted to 49 nM. `CC1(C)C(=O)C(C#N)=C[C@]2(C)c3[nH]c(=O)ncc3CC[C@@H]12` [TX63553]: the IC50 under setting [1] is greater than 200 nM. On the same count and under the same terms, next, `Cn1cc2c(n1)[C@@]1(C)C=C(C#N)C(=O)C(C)(C)[C@@H]1C2` [TX63559]: greater than 200 nM; `CC1(C)C(=O)C(C#N)=C[C@]2(C)c3nc(C(F)(F)F)ncc3CC[C@@H]12` [TX63567]: 43 nM. The same measure, in the same setting: next, `Cn1nc2c(c1-c1ccccc1)CC[C@H]1CC(=O)C=C[C@]21C` [TX63570]: greater than 200 nM. For `Cn1nc2c(c1-c1ccccc1)CCC1=CC(=O)C=C[C@@]12C` [TX63578], under setting [1], the IC50 was greater than 200 nM. As for `CC1(C)C(=O)C(C#N)=C[C@]2(C)c3[nH]nc(-c4ccccc4)c3CC[C@@H]12` [TX63579], the IC50 under setting [1] came to 22 nM. The same measure, in the same setting: next, `CC1(C)C(=O)C(C#N)=C[C@]2(C)c3nc(-c4ccc(Cl)cc4)ncc3CC[C@@H]12` [TX63582]: 33 nM; `Cc1cccc(-c2ncc3c(n2)[C@@]2(C)C=C(C#N)C(=O)C(C)(C)[C@@H]2CC3)c1` [TX63583]: 33 nM. The same measure, in the same setting: next, `Cn1nc2c(c1-c1ccc(Oc3ccccc3)cc1)CC[C@H]1C(C)(C)C(=O)C(C#N)=C[C@]21C` [TX63587]: 40 nM. `CC[C@@H]1C(=O)C(C#N)=C[C@]2(C)c3nn(C)cc3CC[C@@H]12` [TX63589]: the IC50 under setting [1] is 44 nM. Still for that read-out and setting: next, `COc1ccc(-c2ncc3c(n2)[C@@]2(C)C=C(C#N)C(=O)C(C)(C)[C@@H]2CC3)cc1` [TX63590]: 31 nM.

On to `Cn1nc2c(c1C1CCCCC1)CC[C@H]1C(C)(C)C(=O)C(C#N)=C[C@]21C` [TX63591], for which the IC50 under setting [1] was 74 nM. As to `Cn1nc2c(c1NC(=O)OC(C)(C)C)CC[C@H]1C(C)(C)C(=O)C(C#N)=C[C@]21C` [TX63594], under setting [1], the IC50 is greater than 200 nM. Regarding `COc1nc(C)nc2c1CC[C@H]1C(C)(C)C(=O)C(C#N)=C[C@]21C` [TX63595], the IC50 under setting [1] amounted to 20 nM. The same measure, in the same setting: next, `Cn1nc2c(c1-c1ccc3ccccc3c1)CC[C@H]1C(C)(C)C(=O)C(C#N)=C[C@]21C` [TX63600]: 59 nM.

In the case of `Cn1nc2c(c1-c1ccccc1)CC[C@H]1C(Cc3ccccc3)(Cc3ccccc3)C(=O)C(C#N)=C[C@]21C` [TX63601], the IC50 under setting [1] turned out to be 150 nM. Same read-out and setting: next, `Cn1nc2c(c1-c1cccc3ccccc13)CC[C@H]1C(C)(C)C(=O)C(C#N)=C[C@]21C` [TX63603]: 61 nM.

Source of the values: US11192852B2, “Pyrazolyl and pyrimidinyl tricyclic enones as antioxidant inflammation modulators” (REATA PHARMACEUTICALS, INC., priority 2010, dated 2021).
